Reference: patent US20260242366A1, “STING AGONISTS CONTAINING HYDRAZIDE, HYDRAZINE, AND HYDROXAMIC ACID FUNCTIONAL GROUPS” (BioNTech SE, priority 2023, published 2026)
Several values for one entry are separate records, joined by “and”; a condition that tells them apart may be missing. Equal entries are not always repeated. Where two headings read alike, the source gives them in different places. Values belong to the compound of their own block, whether it stands above or below them.

What was measured:
[1] = tested on: STING signaling (IRF and NFKB-pathway activation) in THP1 Dual Cells; test: THP-1 assay (THP1 Dual reporter cells, IRF / NFkB pathway activation); assay type: cell-based; conditions: for EC50: Homo sapiens, THP1 Dual cells
Experimental: THP1 Dual Cells™, were purchased from Invivogen (Cat. thpd-nfis), and used to determine the biological activity of the compounds on a molecular level and to determine downstream activation of STING signaling (IRF and NFKB-pathway activation). Briefly, cultured cells were seeded on the day of the experiment with a density of 1×10^5 cells per well (96-well format in RPMI supplemented with 25 mM HEPES, 10% heat inactivated FCS,). A serial dilution of the compounds was prepared and added to the cells for a total incubation time of 24 hours. The test items were tested in 8 concentrations to determine a dose-dependent activation of the NFKB and the IRF pathway. After 24 h cells were centrifuged and supernatants harvested for the detection of secreted alkaline phosphatase (measured by QUANTI-Blue™ detection solution; Cat. rep-qbs Invivogen) or lucia luciferase (measured by QUANTI-Luc™ reagent; Cat. rep-qlc1, Invivogen), respectively. The read outs were be performed according to the manufacturer's instructions. EC50 values were calculated using GraphPad Prism 9.

[2] = tested on: HEK293 cells with a knocked-in STING receptor (IRF and IFNβ-pathway activation); test: HEK STING assay with and without PFO (membrane permeabilization); assay type: cell-based; conditions: for EC50: Homo sapiens
[3] = tested on: PBMCs from healthy donors; test: PBMC assay, dose-dependent cytokine induction; assay type: cell-based; conditions: Homo sapiens, 24 h
Experimental: Compounds I-A to IV were additionally tested on PBMCs from healthy donors to determine the dose-dependent cytokine induction. PBMCs from buffy coats were thawed on the day of the experiment and seeded with a density of 5×10^5 cells per well (96-well format, RPMI with 5% Human Serum+1% MEM Non-Essential Amino Acids+1% Sodium Pyruvate). In line with the experiment above, a serial dilution of the compounds was prepared and added to the cells for 24 hours. On the next days, cells were centrifuged and supernatants harvested for a cytokine readout based on a multiplex assay kit from mesoscale discovery (customized multiplex panel for the cytokines: IFNα2a, IFNβ, TNFα and IL6). Impact on cell viability was determined by CellTiter Glo2.0 from promega (Cat. G9241). Both experimental read outs were performed according to the manufacturer's instructions.

[4] = Solubility in PBS and HEPES buffer; assay type: physicochemical; conditions: for solubility: aqueous buffer
Description: The primary differences are that Compound XX is less hydrophobic as a result of the introduction of oxazolyl heterocyclic ring in place of the pyrazolyl heterocyclic ring of Compound XV and as a result of the introduction of an imidazopyridine ring in place of the benzimidazole ring of Compound XV.

[5] = IRF pathway, read-out: THP-1 IRF EC50
[6] = NFkB pathway, read-out: THP-1 NFkB EC50
[7] = HEK293, read-out: HEK STING EC50 no PFO [nM]
[8] = HEK293, read-out: HEK STING EC50 with PFO [nM]
[9] = IFNα in supernatant, read-out: PBMC EC50 (μM) for IFNα
[10] = IFNβ in supernatant, read-out: PBMC EC50 (μM) for IFNβ
[11] = 24 h incubation, IRF pathway, read-out: THP-1 EC50 (IRF)
[12] = HEPES Buffer pH 7.0, read-out: Solubility HEPES Buffer pH 7.0

SMILES: CCn1nc(C)cc1C(=O)Nc1nc2cc(CN)cc(OC)c2n1C/C=C/Cn1c(NC(=O)c2cc(C)nn2CC)nc2cc(C(N)=O)cc(OCCCN3CCOCC3)c21 [Compound XLI, 1-[(2E)-4-[5-(Aminomethyl)-2-(1-ethyl-3-methyl-1H-pyrazole-5-amido)-7-methoxy-1H-1,3-benzodiazol-1-yl]but-2-en-1-yl]-2-(1-ethyl-3-methyl-1H-pyrazole-5-amido)-7-[3-(morpholin-4-yl)propoxy]-1H-1,3-benzodiazole-5-carboxamide]
EC50 [1, 5]: 811 nM
EC50 [1, 6]: 364 nM
EC50 [2, 7]: 38 nM
EC50 [2, 8]: 25 nM

SMILES: CCn1nc(C)cc1C(=O)Nc1nc2cc(C(N)=O)cc(OC)c2n1C/C=C/Cn1c(NC(=O)c2cc(C)nn2CC)nc2cc(C(N)=O)cc(OCCCC(=O)N(C)O)c21 [I-H]
EC50 [3, 9]: 0.665 µM
EC50 [3, 10]: 0.249 µM

EC50 [1, 11]: 267 nM
SMILES: CCn1nc(C)cc1C(=O)Nc1nc2cc(C(=O)N(C)N)cc(OC)c2n1C/C=C/Cn1c(NC(=O)c2cc(C)nn2CC)nc2cc(C(N)=O)cc(OCCCN3CCOCC3)c21 [II-C]
EC50 [3, 9]: 1.15 µM
EC50 [3, 10]: 0.91 µM

SMILES: CCn1nc(C)cc1C(=O)Nc1nc2cc(C(N)=O)cc(OC)c2n1C/C=C/Cn1c(NC(=O)c2cc(C)nn2CC)nc2cc(C(N)=O)cc(OCCCC(=O)NNCc3ccc(N)cc3)c21 [I-F]
EC50 [3, 10]: 0.209 µM

SMILES: CCc1nc(C)oc1C(=O)Nc1nc2cc(CO)cc(OC)c2n1C/C=C/Cn1c(NC(=O)c2oc(C)nc2CC)nc2cc(C(N)=O)cc(OCCCN3CCOCC3)c21 [Compound XLII, (E)-N-(5-carbamoyl-1-(4-(2-(4-ethyl-2-methyloxazole-5-carboxamido)-5-(hydroxymethyl)-7-methoxy-1H-benzo[d]imidazol-1-yl)but-2-en-1-yl)-7-(3-morpholinopropoxy)-1H-benzo[d]imidazol-2-yl)-4-ethyl-2-methyloxazole-5-carboxamide]
EC50 [1, 5]: 333 nM
EC50 [1, 6]: 290 nM
EC50 [2, 7]: 26 nM
EC50 [2, 8]: 14 nM

SMILES: CCn1nc(C)cc1C(=O)Nc1nc2cc(C(N)=O)cc(OC)c2n1C/C=C/Cn1c(NC(=O)c2cc(C)nn2CC)nc2cc(C(N)=O)cc(OCCCC(=O)NNC)c21 [I-C]
EC50 [3, 10]: 1.1 µM

SMILES: CCn1nc(C)cc1C(=O)Nc1nc2cc(C(N)=O)cc(OC)c2n1C/C=C/Cn1c(NC(=O)c2cc(C)nn2CC)nc2cc(C(N)=O)cc(OCCCC(=O)NN)c21 [I-A]
EC50 [3, 9]: 0.334 µM
EC50 [3, 10]: 1.25 µM

SMILES: CCn1nc(C)cc1C(=O)Nc1nc2cc(C(N)=O)cc(OC)c2n1C/C=C/Cn1c(NC(=O)c2cc(C)nn2CC)nc2cc(C(N)=O)cc(OCCCC(=O)N(N)Cc3ccc(N)cc3)c21 [I-E]
EC50 [3, 9]: 0.762 µM
EC50 [3, 10]: 0.139 µM

SMILES: CCn1nc(C)cc1C(=O)Nc1nc2cc(C(N)=O)cc(OC)c2n1C/C=C/Cn1c(NC(=O)c2cc(C)nn2CC)nc2cc(C(N)=O)cc(OCCCC(=O)NO)c21 [I-G]
EC50 [3, 9]: 2.02 µM
EC50 [3, 10]: 0.311 µM

Solubility versus Compound XV ([4]; Compound XX compared with Compound XV): slightly better solubility
solubility [4, 12]: 11.5 µM and 10 µg/mL
solubility ([4]; PBS Buffer pH 7.4, lower limit of quantitation 1 μM, read-out: Solubility PBS Buffer pH 7.4): 3.6 µM
solubility ([4]; PBS Buffer pH 7.4, read-out: Solubility PBS Buffer pH 7.4): 3 µg/mL
SMILES: CCc1nc(C)oc1C(=O)Nc1nc2cc(C(N)=O)cnc2n1C/C=C/Cn1c(NC(=O)c2oc(C)nc2CC)nc2cc(C(N)=O)cc(OCCCN(C)N)c21 [Compound XX]

EC50 [1, 11]: 9.74 nM
SMILES: CCn1nc(C)cc1C(=O)Nc1nc2cc(C(N)=O)cc(OC)c2n1C/C=C/Cn1c(NC(=O)c2cc(C)nn2CC)nc2cc(C(N)=O)cc(OCCCC(=O)N3CCN(N)CC3)c21 [I-K]
EC50 [3, 9]: 0.302 µM
EC50 [3, 10]: 0.234 µM

SMILES: CCn1nc(C)cc1C(=O)Nc1nc2cc(C(N)=O)cc(OC)c2n1C/C=C/Cn1c(NC(=O)c2cc(C)nn2CC)nc2cc(C(N)=O)cc(OCCCC(=O)N(C)N)c21 [I-B]
EC50 [3, 10]: 0.403 µM

EC50 [1, 11]: 23.4 nM
SMILES: CCn1nc(C)cc1C(=O)Nc1nc2cc(C(N)=O)cc(OC)c2n1C/C=C/Cn1c(NC(=O)c2cc(C)nn2CC)nc2cc(C(N)=O)cc(OCCCC(=O)N(N)CCN)c21 [I-J]
EC50 [3, 9]: 0.321 µM
EC50 [3, 10]: 0.293 µM

Solubility PBS Buffer pH 7.4 ([4]; PBS Buffer pH 7.4): <LOQ
Solubility PBS Buffer pH 7.4 ([4]; PBS Buffer pH 7.4, lower limit of quantitation 1 μM): <LOQ^#
solubility [4, 12]: 5.9 µM and 5 µg/mL
SMILES: CCn1nc(C)cc1C(=O)Nc1nc2cc(C(N)=O)cc(OC)c2n1C/C=C/Cn1c(NC(=O)c2cc(C)nn2CC)nc2cc(C(N)=O)cc(OCCCN(C)N)c21 [Compound XV]

SMILES: CCn1nc(C)cc1C(=O)Nc1nc2cc(CO)cc(OC)c2n1C/C=C/Cn1c(NC(=O)c2cc(C)nn2CC)nc2cc(C(N)=O)cc(OCCCN3CCOCC3)c21 [Compound XL, (E)-2-(1-ethyl-3-methyl-1H-pyrazole-5-carboxamido)-1-(4-(2-(1-ethyl-3-methyl-1H-pyrazole-5-carboxamido)-5-(hydroxymethyl)-7-methoxy-1H-benzo[d]imidazol-1-yl)but-2-en-1-yl)-7-(3-morpholinopropoxy)-1H-benzo[d]imidazole-5-carboxamide]
THP-1 IRF MEC ([1]; Activity w/o permeabilization): 78 nM
THP-1 NFkB MEC ([1]; Activity w/o permeabilization): 78 nM
EC50 [1, 5]: 221 nM
EC50 [1, 6]: 149 nM
HEK IFNβ MEC ([2]; Activity w/o permeabilization): 0.8 nM
HEK IFNβ MEC ([2]; Activity with permeabilization): 4.0 nM
EC50 ([2]; HEK293, Activity w/o permeabilization, read-out: HEK IRF EC50): 0.53 nM
EC50 ([2]; HEK293, Activity with permeabilization, read-out: HEK IRF EC50): 1.11 nM
EC50 [2, 7]: 2.7 nM
EC50 [2, 8]: 2.7 nM

SMILES: CCn1nc(C)cc1C(=O)Nc1nc2cc(C(N)=O)cc(OC)c2n1C/C=C/Cn1c(NC(=O)c2cc(C)nn2CC)nc2cc(C(N)=O)cc(OCCCC(=O)N(C)OC)c21 [I-I]
EC50 [3, 9]: 0.41 µM
EC50 [3, 10]: 0.212 µM

EC50 [1, 11]: 84.9 nM
SMILES: CCn1nc(C)cc1C(=O)Nc1nc2cc(C(=O)NN)cc(OC)c2n1C/C=C/Cn1c(NC(=O)c2cc(C)nn2CC)nc2cc(C(N)=O)cc(OCCCN3CCOCC3)c21 [II-A]
EC50 [3, 9]: 0.875 µM
EC50 [3, 10]: 0.403 µM

SMILES: CCn1nc(C)cc1C(=O)Nc1nc2cc(C(N)=O)cc(OC)c2n1C/C=C/Cn1c(NC(=O)c2cc(C)nn2CC)nc2cc(C(N)=O)cc(OCCCN3CCOCC3)c21 [diABZI, reference compound]
EC50 [1, 5]: 16 nM
EC50 [1, 6]: 14 nM
EC50 [2, 7]: 1.6 nM
EC50 [2, 8]: 1.2 nM
